Earlier results as cited in patent US9999602B2, “Liquid menthol compositions” (DDROPS COMPANY, priority 2013, dated 2018).

Settings: FDA review, Federal Register 1987

Question: For CC(C)[C@@H]1CC[C@@H](C)C[C@H]1O [menthol, (1R, 2S, 5R)-5-menthol-2-(1-methylethyl)-cyclohexanol], which “Dose of menthol required for antitussive (cough-suppressant) effect” value is on record?
Answer: Its value is “at least 5 mg”.
